Laboratory results reported in paper PMC10244465, “Native American ataxia medicines rescue ataxia-linked mutant potassium channel activity via binding to the voltage sensing domain” (Nature Communications, 2023).
Where two headings read alike, the source gives them in different places.

Assays:
wild-type human Kv1.1 = target: T1, wild-type human Kv1.1 (Homo sapiens, UniProt Q09470); experiment: Two-electrode voltage clamp of oocytes expressing wild-type Kv1.1; type: cell-based; conditions: for effect on Kv1.1 activity: compound 100 µM; for EM (unclamped oocyte membrane potential) / Slope / V0.5 Normalized tail current: in presence of 100 µM compound
T1 construct: expressed in transfected cells; host or cells: Xenopus laevis oocytes injected with cRNA (pTLNx vector)
T1 sequence (Q09470 whole entry): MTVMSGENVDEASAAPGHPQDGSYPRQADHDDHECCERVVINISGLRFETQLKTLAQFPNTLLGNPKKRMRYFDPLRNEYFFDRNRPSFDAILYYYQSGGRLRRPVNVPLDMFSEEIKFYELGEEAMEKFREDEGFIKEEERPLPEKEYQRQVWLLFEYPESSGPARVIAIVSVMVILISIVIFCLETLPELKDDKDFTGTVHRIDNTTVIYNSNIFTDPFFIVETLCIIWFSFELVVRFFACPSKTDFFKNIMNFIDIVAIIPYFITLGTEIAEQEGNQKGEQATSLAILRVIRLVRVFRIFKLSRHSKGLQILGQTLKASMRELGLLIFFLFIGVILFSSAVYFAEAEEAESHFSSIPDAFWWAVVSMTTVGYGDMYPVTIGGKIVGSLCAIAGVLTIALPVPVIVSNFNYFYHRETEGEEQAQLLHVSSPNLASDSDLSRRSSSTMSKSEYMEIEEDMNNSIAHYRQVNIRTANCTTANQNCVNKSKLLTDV
Text: Wild-type and mutant Kv1 cDNAs were generated (Genscript, Piscataway, NJ) in the pTLNx expression vector. As previously described, we generated cRNA transcripts encoding human Kv1.1 (wild-type and mutant) and Kv1.2, by in vitro transcription using the mMessage mMachine kit (Thermo Fisher Scientific), after vector linearization, from cDNA sub-cloned into plasmids (pTLNx) incorporating Xenopus laevis β-globin 5’ and 3’ UTRs flanking the coding region to enhance translation and cRNA stability. We injected defolliculated stage V and VI Xenopus laevis oocytes (Xenoocyte, Dexter, MI, US) with Kv1 cRNAs (1–5 ng). We incubated the oocytes at 16 °C in ND96 oocyte storage solution containing penicillin and streptomycin, with daily washing, for 2 days prior to two-electrode voltage-clamp (TEVC) recording.
We performed TEVC at room temperature using an OC-725C amplifier (Warner Instruments, Hamden, CT) and pClamp10 software (Molecular Devices, Sunnyvale, CA) 2 days after cRNA injection as described in the section above. For recording, oocytes we placed in a small-volume oocyte bath (Warner) and viewed with a dissection microscope. We sourced chemicals from Sigma. We studied effects of plant extracts and of compounds, solubilized directly in bath solution (in mM): 96 NaCl, 4 KCl, 1 MgCl2, 1 CaCl2, 10 HEPES (pH 7.6). We introduced extracts or compounds into the oocyte recording bath by gravity perfusion at a constant flow of 1 ml per minute for 3 min prior to recording. Pipettes were of 1–2 MΩ resistance when filled with 3 M KCl. We recorded currents in response to voltage pulses between −80 mV and +40 mV at 10 or 20 mV intervals from a holding potential of −80 mV, to yield current-voltage relationships and examine activation kinetics. To calculate the voltage dependence of activation (V0.5), tail currents were recorded at a voltage pulse of −50 mV immediately following prepulse voltages between −80 mV and +40 mV. We analyzed data using Clampfit (Molecular Devices) and Graphpad Prism software (GraphPad, San Diego, CA, USA), stating values as mean ± SEM. We plotted raw or normalized tail currents vs. prepulse voltage and fitted with a single Boltzmann function:1 g=(A1−A2)/1+exp[V1/2−V/Vs]y+A2 where g is the normalized tail conductance, A1 is the initial value at -∞, A2 is the final value at +∞, V1/2 is the half-maximal voltage of activation and Vs the slope factor.

wild-type Kv1.1 = tested on: wild-type Kv1.1; design: method as in PMID 28391996; conditions: prepulse current at −50 mV, 10 µM; cited from earlier work
[1] = design: method as in earlier work; conditions: following massage with lavender oil; cited from earlier work
wild-type human Kv1.2 = target: T2, wild-type human Kv1.2 (Homo sapiens, UniProt P16389); experiment: Two-electrode voltage clamp of oocytes expressing wild-type Kv1.2; type: cell-based
T2 construct: expressed in transfected cells; host or cells: Xenopus laevis oocytes injected with cRNA (pTLNx vector)
T2 sequence (P16389 whole entry): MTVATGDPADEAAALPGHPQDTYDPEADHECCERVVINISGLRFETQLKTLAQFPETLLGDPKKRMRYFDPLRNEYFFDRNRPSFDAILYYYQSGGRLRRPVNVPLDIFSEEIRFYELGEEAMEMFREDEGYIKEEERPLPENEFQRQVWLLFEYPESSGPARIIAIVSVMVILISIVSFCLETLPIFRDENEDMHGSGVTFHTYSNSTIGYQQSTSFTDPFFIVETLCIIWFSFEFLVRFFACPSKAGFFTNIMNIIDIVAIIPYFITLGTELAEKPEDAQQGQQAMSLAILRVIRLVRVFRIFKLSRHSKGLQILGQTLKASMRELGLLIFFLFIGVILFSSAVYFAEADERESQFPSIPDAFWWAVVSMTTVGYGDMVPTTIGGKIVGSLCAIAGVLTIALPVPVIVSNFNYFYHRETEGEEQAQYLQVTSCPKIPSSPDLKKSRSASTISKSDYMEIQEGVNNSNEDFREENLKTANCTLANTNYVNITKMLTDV
Description: We therefore first tested for activity of extracts (diluted 1:50 in bath solution to equal 5 mg plant solid starting material per ml) of each of the three plants on wild-type human Kv1.1 and closely related Kv1.2 expressed in Xenopus laevis oocytes, using manual two-electrode voltage clamp (TEVC). Strikingly, all three extracts altered Kv1 channel activity. […] Pacific ninebark (roots or leaves) had similar effects on Kv1.1 but negligible effects on Kv1.2.
We purchased live Urtica dioica (Common Nettle) from Crimson Sage Nursery (Orleans, CA, USA), cultivated it in Irvine CA, collected the aerial portions (primarily leaves) and then froze them until the day of extraction. We purchased Physocarpus capitatus (Pacific ninebark) live whole plant from Ozark Wildflower Company (Jasper, AR, USA) and separated the roots and aerial parts before extraction of each. We homogenized plant samples using a bead mill with porcelain beads in batches in 50 ml tubes (Omni International, Kennesaw, GA, United States). We purchased certified organic tree bark powders from Mountain Rose Herbs (Eugene, OR, USA) and dry raw Sophora japonica (fine pellets) from Teriya (People’s Republic of China). We purchased bladderwrack kelp extract capsules from Terra Vita (Brampton, Ontario, Canada) and discarded the outer capsule before extraction. We resuspended all plant powders and homogenates in 80% methanol/20% water (100 ml per 5 g solid) and then incubated for 48 h at room temperature, occasionally inverting the bottles to resuspend the extracts. We next filtered the extracts through Whatman filter paper #1 (Whatman, Maidstone, UK), and then removed the methanol using evaporation in a fume hood for 24–48 h at room temperature. We next centrifuged extracts for 10 min at 15 °C, 4000 RCF to remove the remaining particulate matter, followed by storage at −20 °C. On the day of electrophysiological recording, we thawed the extracts and diluted them 1:50 in bath solution (see below), to equal 5 mg plant solid starting material per ml, immediately before use.
Wild-type and mutant Kv1 cDNAs were generated (Genscript, Piscataway, NJ) in the pTLNx expression vector. […]
(§1) We performed TEVC at room temperature using an OC-725C amplifier (Warner Instruments, Hamden, CT) and pClamp10 software (Molecular Devices, Sunnyvale, CA) 2 days after cRNA injection as described in the section above. […] We recorded currents in response to voltage pulses between −80 mV and +40 mV at 10 or 20 mV intervals from a holding potential of −80 mV, to yield current-voltage relationships and examine activation kinetics. To calculate the voltage dependence of activation (V0.5), tail currents were recorded at a voltage pulse of −50 mV immediately following prepulse voltages between −80 mV and +40 mV. […]

Kv1.1-E283K channels = target: T3, Kv1.1-E283K channels (Homo sapiens, UniProt Q09470, E283K); experiment: TEVC of oocytes injected with 100% Kv1.1-E283K cRNA; type: cell-based; conditions: compound 1 µM
T3 construct: expressed in transfected cells; host or cells: Xenopus laevis oocytes
T3 sequence (Q09470 whole entry E283K): as the sequence (Q09470 whole entry) above, with E283K counted along it

Kv1.1-L328V channels = target: T4, Kv1.1-L328V channels (Homo sapiens, UniProt Q09470, L328V); experiment: TEVC of oocytes expressing 100% Kv1.1-L328V; type: cell-based; conditions: compound 1 µM
T4 construct: expressed in transfected cells; host or cells: Xenopus laevis oocytes
T4 sequence (Q09470 whole entry L328V): as the sequence (Q09470 whole entry) above, with L328V counted along it
Text: (§2) EA1 mutant G311D is in the S4-5 linker of Kv1.1 (Fig. 5a) and produces a 65% prepulse current reduction both in Kv1.1-G311D and in Kv1.1/Kv1.1-G311D channels[43],[44]; either channel type was minimally responsive to the plant extracts tested (Supplementary Figs. 3 and 4). EA1 mutant L328V (which is associated with tetany and hypomagnesemia) is located in the intracellular end of Kv1.1 S5 (Fig. 5a) and results in complete current loss in a dominant negative manner, i.e., Kv1.1-L328V and Kv1.1/Kv1.1-L328V channels are each nonfunctional. The traditional ataxia remedy plant extracts were unable to rescue Kv1.1-L328V or Kv1.1/Kv1.1-L328V function (Supplementary Figs. 5 and 6). EA1 mutant V408A is in the intracellular-proximal end of Kv1.1 S6 (Fig. 5a) and reduces current, speeds deactivation, and increases C-type inactivation of Kv1.1[46]. Here, Native American ataxia remedy extracts had relatively minor effects on Kv1.1-V408A activity, with nettle and Pacific ninebark (roots or leaves) inducing hyperpolarizing shifts in EM, and Pacific ninebark leaves inducing a negative shift in the voltage dependence of activation, although this was not quantifiable due to the very small tail currents (Supplementary Fig. 7). Effects of the extracts on Kv1.1/Kv1.1-V408A activity were also relatively minor (Supplementary Fig. 8). […]
as §1, with “mV. We analyzed data using Clampfit (Molecular Devices) and Graphpad Prism software (GraphPad, San Diego, CA, USA), stating values as mean ± SEM.” for “mV.”

Kv1.1-V408A channels = target: T5, Kv1.1-V408A channels (Homo sapiens, UniProt Q09470, V408A); experiment: TEVC of oocytes expressing 100% Kv1.1-V408A; type: cell-based; conditions: compound 1 µM
T5 construct: expressed in transfected cells; host or cells: Xenopus laevis oocytes
T5 sequence (Q09470 whole entry V408A): as the sequence (Q09470 whole entry) above, with V408A counted along it
Text: as §2
as §1, with “mV. We analyzed data using Clampfit (Molecular Devices) and Graphpad Prism software (GraphPad, San Diego, CA, USA), stating values as mean ± SEM.” for “mV.”

[2] = dose response, Fig. 4, read-out: EC50 for ΔV0.5activation

Compound	effect on Kv1.1 activity (wild-type human Kv1.1)	EM (unclamped oocyte membrane potential) (wild-type human Kv1.1)	Slope (wild-type human Kv1.1)	V0.5 Normalized tail current (wild-type human Kv1.1)	other results
O=c1cccc2n1C[C@@H]1CNC[C@H]2C1 [cytisine]	did not alter Kv1.1 activity	-41.60 ± 1.77 mV	8.15 ± 1.31 mV	-23.96 ± 1.37 mV	
C=C[C@@]1(C)C=C2CC[C@@H]3[C@](C)(CCC[C@@]3(C)C(=O)O)[C@H]2CC1 [Pimaric acid]					increase of wild-type Kv1.1 currents (wild-type Kv1.1): up to eightfold
O=C1CCC[C@@H]2[C@H]3CCC[N+]4([O-])CCC[C@@H](CN12)[C@@H]34 (stereo partly shown) [oxymatrine]	no effect	-39.88 ± 2.34 mV	8.73 ± 0.24 mV	-21.86 ± 0.64 mV	
C=CC(C)(CCC=C(C)C)OC(C)=O (stereo not shown) [linalyl acetate]					time to peak levels in the blood [1]: under 20 min
C=CC(C)(O)CCC=C(C)C (stereo not shown) [linalool]					time to peak levels in the blood [1]: under 20 min

The next lines start with results.

effect on Kv1.1 activity (wild-type human Kv1.1)	EM (unclamped oocyte membrane potential) (wild-type human Kv1.1)	Slope (wild-type human Kv1.1)	V0.5 Normalized tail current (wild-type human Kv1.1)	Compound	other results
did not alter Kv1.1 activity	-31.33 ± 2.31 mV	5.83 ± 0.38 mV	-14.70 ± 0.44 mV	O.Oc1cc(O)c2c(c1)O[C@H](c1ccc(O)c(O)c1)[C@@H](O)C2 [catechin hydrate]	
did not alter Kv1.1 activity	-45.25 ± 1.83 mV	8.68 ± 0.87 mV	-22.40 ± 0.84 mV	O=c1c(O)c(-c2ccc(O)cc2)oc2cc(O)cc(O)c12 [kaempferol]	
lesser but still robust opening effect	-56.75 ± 0.28 mV	11.79 ± 2.88 mV	-31.59 ± 3.22 mV	C[C@@H]1O[C@@H](OC[C@H]2O[C@@H](Oc3c(-c4ccc(O)c(O)c4)oc4cc(O)cc(O)c4c3=O)[C@H](O)[C@@H](O)[C@@H]2O)[C@H](O)[C@H](O)[C@H]1O [rutin]	EC50 (wild-type human Kv1.1; [2]): 385 ± 12 nM; EC50 (wild-type human Kv1.1; oocytes expressing wild-type Kv1.1, read-out: EC50 for hyperpolarization of EM): 150 ± 38 nM; EC50 (wild-type human Kv1.2; [2]): 72 ± 16 nM; EC50 (wild-type human Kv1.2; oocytes expressing Kv1.2, read-out: EC50 for hyperpolarization of EM): 406 ± 62 nM; effect on channel activity (Kv1.1-E283K channels): ineffective; effect on channel activity (Kv1.1-L328V channels): ineffective; effect on channel activity (Kv1.1-V408A channels): ineffective
did not alter Kv1.1 activity	-43.50 ± 1.46 mV	6.00 ± 1.06 mV	-25.12 ± 1.81 mV	O=c1c(O)c(-c2ccc(O)c(O)c2)oc2cc(O)cc(O)c12 [quercetin]	
